Values quoted from earlier work, collected in US20040142353A1, “Compositions and methods for identifying plants having increased tolerance to imidazolinone herbicides” (priority 2002, published 2004).
Read-outs that look alike come from different tables or passages of the source.

Key:
[1] = tested on: B. napus mutants P1 and P2; details: B. napus (cv 'Topas') mutants P1 and P2
[2] = tested on: B. napus P1, P2, and P1×P2 hybrid; details: field trials

Compound | tolerance of mutant AHAS enzyme relative to wild type enzyme (AHAS enzyme; AHAS enzyme of homozygous P1 mutant vs wild type enzyme) | tolerance of mutant AHAS enzyme relative to wild type enzyme (AHAS enzyme; AHAS enzyme of homozygous P2 mutant vs wild type enzyme) [times] | level of herbicide tolerated by mutant plants [1] | application rate withstood with no loss of yield [2]
CCc1cnc(C2=NC(C)(C(C)C)C(=O)N2)c(C(=O)O)c1 (centres unmarked) [PURSUIT®, 2-[4,5-dihydro-4-methyl-4-(1-methylethyl)-5-oxo-1H-imidazol-2-yl]-5-ethyl-3-pyridinecarboxylic acid] | only slightly more tolerant | 500 | approaching ten times the field-recommended rates | 
methyl esters of 2-[4,5-dihydro-4-methyl-4-(1-methylethyl)-5-oxo-1H-imidazol-2-yl]-4-methylbenzoic acid and 2-[4,5-dihydro-4-methyl-4-(1-methylethyl)-5-oxo-1H-imidazol-2-yl]-5-methylbenzoic acid [ASSERT®] |  |  | approaching ten times the field-recommended rates | up to 800 g/ha
